PMC6335354, “Chitosan Grafted With β-Cyclodextrin: Synthesis, Characterization, Antimicrobial Activity, and Role as Absorbefacient and Solubilizer” (Frontiers in Chemistry, 2019)
Converted amounts (≈) assume the structure as drawn. Structures can show the parent of a compound that is named as a salt. Where two headings read alike, the source gives them in different places.

Tests used:
[1] = Aqueous solubility of sulfonamides (UV-Vis); conditions: thermodynamic from solid
Protocol: Aqueous solubility measurements were conducted according to the method of Wang and Wang ([2000]). […] The mixture was agitated until reaching equilibrium with water in the equilibrium cell and then kept for 30 min. A known amount of the upper layer of the mixture was removed from the equilibrium cell and diluted with distilled water. The calibration curve established by ultraviolet–visible spectrophotometry (UV–Vis) was used to determine the concentration of the solution.

physchem = conditions: for solubility at 2 h: 25 °C, aqueous with cosolvent or surfactant or cyclodextrin, thermodynamic from solid, solubility with CD-g-CS
Protocol: Acetic acid [1 mL, 1 % (v/v)] was used to dissolve 10 mg of CD-g-CS, and the pH of the solution was adjusted to be similar to that of the distilled water. […] A vortex mixer was used to mix the suspension followed by sonication for 20 min. The mixture was then stirred for 2 h at 25°C followed by the centrifugation of the suspension at 8,000 r/min for 10 min. The supernatant was filtered using a membrane with 0.45-μm pore size.

[2] = added 6 μg/mL (sulfamethoxazole 8 μg/mL)
Protocol: The stability test was performed by keeping the samples for 0h, 1h, 2h, 4h, 6h, 8h, 24h at room temperature before analysis. […] S2.

S. xylosus [3] = experiment: Uptake of doxorubicin hydrochloride by flow cytometry (FCS); assay type: cell-based, Staphylococcus xylosus; conditions: 50 μmol/L doxorubicin hydrochloride, CD-g-CS 0.5, 2, 5 mg/mL, 1 h, 37°C
Protocol: The cultured S. xylosus in the logarithmic phase were mixed with CD-g-CS (5, 2, or 0.5 mg/mL) containing 50 μmol/L doxorubicin hydrochloride. The mixtures were incubated at 37°C for 1 h. Subsequently, the S. xylosus solutions were centrifuged, washed three times with PBS (pH = 7.2), and resuspended in 500 μL PBS. For each sample, S. xylosus was sorted using a Flow Cytometry System (FCS). S. xylosus treated with only doxorubicin hydrochloride served as a control.

S. xylosus [4] = experiment: Uptake of doxorubicin hydrochloride by CLSM; assay type: cell-based, Staphylococcus xylosus; conditions: 50 μmol/L doxorubicin hydrochloride, 2 mg/mL CD-g-CS, 30 min, 1 and 3 h
Protocol: Cultured S. xylosus in the logarithmic phase was mixed with 2 mg/mL CD-g-CS containing 50 μmol/L doxorubicin hydrochloride. The mixtures were incubated at 37°C for 30 min, 1 or 3 h. The mixtures of S. xylosus were then centrifuged, washed three times, and re-suspended in 500 μL PBS (pH = 7.2). Each sample with S. xylosus was placed on a glass slide and observed by confocal laser scanning microscopy (CLSM). S. xylosus treated with only doxorubicin hydrochloride for 30 min, 1 or 3 h served as the control.

solubility ([1]; distilled water) [µg/mL] | solubility at 2 h (physchem) [µg/mL] | Measured concentration ([2]; 0h at room temperature) [µg/mL] | Measured concentration ([2]; 1h at room temperature) [µg/mL] | Measured concentration ([2]; 2h at room temperature) [µg/mL] | Measured concentration ([2]; 4h at room temperature) [µg/mL] | Measured concentration ([2]; 6h at room temperature) [µg/mL] | Measured concentration ([2]; 8h at room temperature) [µg/mL] | Measured concentration ([2]; 24h at room temperature) [µg/mL] | solubility ([1]; water) [µg/mL] | solubility at 2 h (physchem; 10 mg/mL CD-g-CS solution, with 10 mg/mL CD-g-CS (QCD = 0.6 × 10^2 μmol/g)) [µg/mL] | solubility at 2 h (physchem; 10 mg/mL CD-g-CS solution, with 10 mg/mL CD-g-CS (QCD = 0.643 × 10^3 μmol/g)) [µg/mL] | solubility enhancement compared to the aqueous solution (physchem; with 10 mg/mL CD-g-CS (QCD = 0.6 × 10^2 μmol/g)) | solubility enhancement compared to the aqueous solution (physchem; with 10 mg/mL CD-g-CS (QCD = 0.643 × 10^3 μmol/g)) [times] | SMILES | uptake of doxorubicin hydrochloride (fluorescence intensity, FCS) (S. xylosus [3]) | uptake of doxorubicin hydrochloride (fluorescence intensity, CLSM) (S. xylosus [4])
69 ± 1.59 (≈ 246 µM) | 283 ± 13 (≈ 1010 µM) | 6.09 ± 0.060 | 6.09 ± 0.026 | 5.93 ± 0.021 | 6.12 ± 0.018 | 5.88 ± 0.018 | 6.12 ± 0.046 | 6.13 ± 0.015 |  |  |  |  |  | COc1cc(NS(=O)(=O)c2ccc(N)cc2)ncn1 [sulfamonomethoxine] |  | 
 |  | 5.98 ± 0.078 | 6.04 ± 0.058 | 6.13 ± 0.013 | 5.89 ± 0.047 | 5.95 ± 0.055 | 6.14 ± 0.043 | 6.02 ± 0.054 | 26 ± 1.68 (≈ 104 µM) | 147 ± 7.05 (≈ 587 µM) | 236 ± 4.25 (≈ 943 µM) | approximately 5.6 times | 9.1 | Nc1ccc(S(=O)(=O)Nc2ncccn2)cc1 [sulfadiazine] |  | 
 |  |  |  |  |  |  |  |  |  |  |  |  |  | COc1cccc2c1C(=O)c1c(O)c3c(c(O)c1C2=O)C[C@@](O)(C(=O)CO)C[C@@H]3O[C@H]1C[C@H](N)[C@H](O)[C@H](C)O1 [doxorubicin hydrochloride] | very low | very weak
